The test system of data set [1] is C57BL/6 mice. Kind of data set: Experimental autoimmune encephalitis (EAE), MOG 35-55 induced. The format is in vivo. Conditions: intranasal daily from day 4, 1.5 nmoles; scale 0-5. The protocol:
EAE was induced in six-week-old female C57BL/6 mice using a procedure described previously (67). Briefly, mice were primed subcutaneously in the flanks with 150 μg of Myelin Oligodendrocyte Glycoprotein (MOG) 35-55 peptide (Biosynthesis, Lewisville, Tex.) per animal. The peptide was emulsified in complete Freund's adjuvant (CFA) containing 1 mg/ml of Mycobacterium tuberculosis H37RA (Difco, Detroit, Mich.). Two days later the mice were injected IP with 500 ng of Pertussis toxin (Alexis Corp., San Diego, Calif.) in 100 μl of PBS. Mice (n=10) were treated intranasally with daily doses of 1.5 nmoles of Exo-cur, or with Cur- or Exo-controls in PBS or PBS-control for 26 consecutive days. […] The mice were scored as follows: 0, no detectable signs of EAE; 1, complete limp tail; 2, limp tail and hindlimb weakness; 3, severe hindlimb weakness; 4, complete bilateral hindlimb paralysis; 5, total paralysis of both forelimbs and hindlimbs or death.
Relative quantification of select mRNA was performed using a CFX96 Realtime System and SsoFast™ Evagreen® supermixture (Bio-Rad Laboratories, Hercules, Calif.) according to the manufacturer's instructions. […] Fold changes in mRNA expression between treatments and controls were determined the ΔCT method (91). Fluorescence threshold cycle (Ct) values were calculated using SDS 700 System Software (Bio-Rad Laboratories, Hercules, Calif.). […]

Data set [2] in a line: In vitro stability assay in PBS (pH 7.4) at 37° C. The format is physicochemical. Conditions: 150 min. The protocol: The fold reduction of the concentration at each time was determined by comparison to the beginning value. The experiments were repeated three times for each time point (n=3).
Data set [3] deals with Gr1^+ cells. Kind of data set: Gr1+ cell apoptosis, Annexin V FACS analysis. The format is cell-based, Mouse. Conditions: 5 μM and 10 μM, 8 hours, Annexin V-FITC FACS.
Description: For cell surface marker staining, isolated cells were blocked at 4° C. for 5 min with 10 μg/ml mouse Fc block (BD Biosciences, San Jose, Calif.) and then reacted with various fluorochrome-labeled antibodies including appropriate isotype controls for 30 min at 4° C. After washing twice, cells were fixed and analyzed using a FACSCalibur flow cytometer (Becton Dickinson Biosciences, San Jose, Calif.). Data were analyzed using FlowJo software (Tree Star, Inc., Ashland, Oreg.). The following antibodies were used for immunostaining: FITC-Annexing V (Invitrogen, Carlsbad, Calif.), APC anti-mouse CD11b and PE anti-mouse Gr-1 (eBiosciences, San Diego, Calif.).
Mouse bone marrow cells were isolated as described previously (22). The isolated bone marrow cells were re-suspended to a concentration of 1×10^8 cells/ml using RPMI 1640 medium supplemented with 10% FBS. A Gr1-PE conjugated antibody (3 μg/ml), following a mouse FcR blocking specific antibody (5 μl/ml), was added, mixed thoroughly and incubated at 4° C. for 15 min. After centrifugation at 1500 rpm for 5 min, cells were re-suspended in fresh medium to a concentration of 1×10^8 cells/ml. EasySep® PE selection cocktail (25 μl/ml, StemCell Technologies, Vancouver, British Columbia) was added to the cells and incubated at 4° C. for 15 min. […]
For data set [4], the system named is C57BL/6j mice. Kind of data set: LPS mouse septic shock model. The format is in vivo. Conditions: 16 hours after IP injection of LPS, 4 mg/kg IP. As to the method: Mouse mortality was monitored over a period of 4 days. The sera were collected 16 hr after LPS injection and used to determine IL-6 and TNF-α levels using ELISAs as before. At day 1 after LPS challenge, 3 mice from each treated group were sacrificed and the leukocytes in the lungs were isolated using a method described previously (21). The percentage of CD11b^+Gr-1^+ cells in the lung was determined by FACS analysis.
Briefly, to monitor mice mortality, a LD50 (median lethal dose) of LPS was determined first. LPS (5 mg/ml, Sigma, St. Louis, Mo.) was then prepared with sterile H2O and varied amounts of LPS were IP injected into the same batch of commercially supplied C57BL/6j mice. Each group contained 6 mice. […] Exosomes and PBS injections served as controls.

Regarding `COc1cc(/C=C/C(=O)CC(=O)/C=C/c2ccc(O)c(OC)c2)ccc1O` [curcumin], the “EAE disease severity score” value in data set [1] was determined as 3.60±0.12. For the same compound, the “curcumin remaining after incubation compared to the 0 min sample” value in data set [2] is given as 25%. The “Gr1+ cell apoptosis” value in data set [3] is on record as “induces Gr1^+ cell apoptosis”. In data set [4], the “sera level of IL-6” value is listed as “similar” and the “sera level of TNF-α” value is reported as “similar”.

The record behind these values is patent US10799457B2, “Exosomal compositions and methods for the treatment of disease” (priority 2010, dated 2020).
